Reference: article PMC7349874, “High Content Screening Using New U2OS Reporter Cell Models Identifies Harmol Hydrochloride as a Selective and Competitive Antagonist of the Androgen Receptor” (Cells, 2020)
pIC50: −log10 of the molar value. Structures can show the parent of a compound that is named as a salt.

What was measured:
[1] = target: T1, full-length AR (Homo sapiens, UniProt P10275); assay: Transactivation assay in DU145 cells transiently overexpressing full-length AR; assay type: cell-based; details: 1 nM R1881
T1 sequence (P10275 1-920): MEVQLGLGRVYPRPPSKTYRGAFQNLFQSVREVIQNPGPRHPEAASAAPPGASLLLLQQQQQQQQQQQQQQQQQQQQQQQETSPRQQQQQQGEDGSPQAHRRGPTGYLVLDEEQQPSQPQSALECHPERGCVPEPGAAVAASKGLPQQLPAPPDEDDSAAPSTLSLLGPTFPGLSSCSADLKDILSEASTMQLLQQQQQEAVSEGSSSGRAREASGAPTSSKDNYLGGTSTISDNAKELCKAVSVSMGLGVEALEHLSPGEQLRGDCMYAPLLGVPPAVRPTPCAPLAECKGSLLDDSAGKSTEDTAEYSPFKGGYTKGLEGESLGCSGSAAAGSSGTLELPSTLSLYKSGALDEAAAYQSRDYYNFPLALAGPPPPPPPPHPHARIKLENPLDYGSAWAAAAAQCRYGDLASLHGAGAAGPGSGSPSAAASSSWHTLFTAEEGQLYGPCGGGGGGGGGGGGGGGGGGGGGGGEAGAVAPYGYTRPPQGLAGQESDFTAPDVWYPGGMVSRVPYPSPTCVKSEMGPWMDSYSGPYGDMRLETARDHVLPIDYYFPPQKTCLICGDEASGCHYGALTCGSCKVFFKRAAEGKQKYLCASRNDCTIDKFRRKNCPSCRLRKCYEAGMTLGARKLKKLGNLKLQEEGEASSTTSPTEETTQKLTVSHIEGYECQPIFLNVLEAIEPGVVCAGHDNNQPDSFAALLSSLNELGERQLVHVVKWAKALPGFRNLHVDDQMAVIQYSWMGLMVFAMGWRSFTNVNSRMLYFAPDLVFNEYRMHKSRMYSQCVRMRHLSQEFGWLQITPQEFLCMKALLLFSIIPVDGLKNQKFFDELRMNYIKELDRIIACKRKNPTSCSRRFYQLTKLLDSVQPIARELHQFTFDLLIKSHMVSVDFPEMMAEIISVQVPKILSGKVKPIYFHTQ
Source text: transactivation assays as in Fig. 3.
performed in quadruplicate.
[Harmol Hydrochloride] (M)

[2] = target: T2, AR (Homo sapiens, UniProt P10275); assay: cell-based; assay type: binding
T2 sequence (P10275 1-920): T1 sequence (P10275 1-920)
Protocol: U2OS hAR-AREluc cells were seeded at a density of 80,000 cells per well in clear-bottomed 96-well plates (Greiner Bio-One, Courtaboeuf, France). […] Cells were then lysed with 50 μL of LSC-cocktail (Emulsifier-Safe, Packard BioScience, Wellesley, MA, USA), and [^3H]-bound radioactivity was counted in scintillation liquid with a microbeta trilux (Perkin Elmer, Wellesley, MA, USA). Non-specific binding was determined in the presence of 300 nM unlabeled R1881. Specific binding was calculated by subtracting non-specific binding from the total binding, and expressed as disintegrations per minute (dpm). […] Relative binding affinities (RBA) were calculated as IC50 ratios between each competitor and R1881. The RBA value for R1881 was arbitrarily set at 100.
Non-specific binding was determined in the presence of 300 nM unlabeled R1881. Specific binding was calculated by subtracting non-specific binding from total binding. Results were plotted as % of maximal [^3H]-labeled R1881 binding as a function of drug concentrations (n = 3 ± SEM).

[3] = tested on: VCaP cells; assay: Spheroid growth (CellTiter-Glo), VCaP; details: 7 days, 1 nM R1881

In the case of `Cc1nccc2c1[nH]c1cc(O)ccc12` [harmol hydrochloride, Harmol hydrochloride monohydrate], the “Inhibition of AR transactivation” value [1] was “significant inhibition of AR transactivation”, the “Concentration competing with ligand binding relative to enzalutamide” value [2] was 3.5 fold and the pIC50 ([2]; 0.3 nM [3H]-R1881, 3 h, 37 °C, read-out: IC50 of competition with [3H]-R1881 for AR binding) was 6.27. The “Growth of VCaP spheroids” value [3] was “A similar effect was observed”.
